In test [1] the target is T1, recombinant human Arginase I, native (non-pegylated), 6xHis-tagged, B. subtilis-expressed, SEQ ID NO: 3 (Homo sapiens, UniProt P05089).
T1 sequence (P05089 1-322): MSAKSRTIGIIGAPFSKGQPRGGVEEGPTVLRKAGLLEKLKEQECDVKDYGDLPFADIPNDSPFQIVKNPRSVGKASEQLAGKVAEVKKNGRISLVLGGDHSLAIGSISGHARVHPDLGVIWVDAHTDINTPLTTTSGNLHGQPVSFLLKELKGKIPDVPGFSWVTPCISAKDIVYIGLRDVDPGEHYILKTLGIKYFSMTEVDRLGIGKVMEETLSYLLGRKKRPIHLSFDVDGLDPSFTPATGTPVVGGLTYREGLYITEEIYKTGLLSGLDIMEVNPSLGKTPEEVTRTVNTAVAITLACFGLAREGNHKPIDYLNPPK
The test is described as follows: Arginase activity, kinetic properties (method of Ikemoto et al. 1990). The class given is biochemical. To be noted: substrate arginine.

Test [2] addresses T2, pegylated Arginase (recombinant human Arginase I, SEQ ID NO: 3, modified with mPEG-SPA, MW 5,000) (Homo sapiens, UniProt P05089).
T2 sequence (P05089 1-322): T1 sequence (P05089 1-322)
The test is described as above. The class given is biochemical. To be noted: substrate arginine. As to the method:
Moreover, about 1 mM of Mn^2+ ions and a temperature of 30-50 degree C are required to achieve maximum activity for the native Arginase.

Another test concerns the target human liver Arginase (Homo sapiens, UniProt P05089). To be noted: published value in literature; substrate arginine; cited from earlier work.

Structures are written as SMILES.

By Km is commonly meant the substrate concentration at which the rate is half of its maximum. One may read the kcat as the maximal rate divided by the concentration of active sites. In the case of `N=C(N)NCCC[C@H](N)C(=O)O` [arginine], in test [1], the Km turned out to be 1900 ± 700 µM, the Vmax came out at 518 µmol urea min^-1. mM^-1 and the kcat turned out to be 2.0 ± 0.5 s⁻¹. In test [2], the Km was determined as 2900 ± 300 µM and the Vmax was determined as 360 µmol urea min^-1 mM^-1. Further, the Km on human liver Arginase is 2600 µM.
